# From EP2679243B1, “Co-precipitate of one or more stilbene polyphenols in lamellar anionic solids, it's applications and related preparation method” (Fioretti, Bernard, priority 2012, dated 2014)
# Key:
# [1] = Solubility in gastric fluid (indirect weighing and UV dosage); format: physicochemical; conditions: gastric fluid (FU; fluid mimicking the gastric fluid), simulated gastric fluid, thermodynamic from solid, gastric fluid pH 1.2, FU
# Method: Solution 1is prepared by dissolving 258.3 mg of AlCl3 * 6H2O and 508.3 mg of MgCl2 * 6H2O in 18 mL of deionized water. […] A hydro-alcoholic solution is obtained by mixing the first and second solution and keeping it in a dark environment, agitated and in nitrogen flow. To this solution, under nitrogen flow, it has to be added 10 ml of NaOH solution 1 M up to a pH between 10-11. Solid precipitated is left to be digested for 15 minutes and then it is separated through centrifugation. The solid recovered, has to be washed 2 times using 30 ml of deionized water and finally using 20 ml of ethanol. Finally the solid recovered is dryed out at 50 °C. […] Width of signals is due to low crystallinity of hydrotalcitic matrix that can be ascribed to an amorphous phase. […] The presence of resveratrol is confirmed by DTA signal (black trace) in which it is possible to observe a sequence of exhotermic processes due to resveratrol degradation. […] Little changes are observed after a 120 minute irradiation at 340 nm (Figure 3C. black trace: not irradiated; red trace: irradiated). […] Dissolution tests in fluids mimicking the gastric fluid (pH: 1-2, FU) at 37 °C, stirred and characterized by a blade rotation speed equal to 60 rotation/min in not sink conditions.
# [2] = Photostability under irradiation at 340 nm (absorption spectra); format: physicochemical
# Description: • Figure 1. Characterization of the product obtained from the co-precipitation process according to the invention described in example 1. […] Figure 1B. The thermogravimetric analysis defines weight percentage of resveratrol load in co-precipitate. […] Characterization of the product obtained from the co-precipitation process according to the invention described in example 2. Figure 2A. […] Figure 2B. The thermogravimetric analysis to calculate weight percentage of resveratrol in co-precipitate. […] Figure 2C. […] Samples are prepared in aqueous solution. […] Column Luna Phenomenex RP-18, eluents A)-H2O + TFA 0.1% e B- MeCN (Gradient: 5min: 5% B; 20 min: until 95% B; 5 min: up to 5% B, Temperature: 25°C, flow speed of eluent 1.0 mL/min, detector: DAD (190-400 nm)) • Figure 3. […] A) Absorption spectrum of crystalline resveratrol. […] The dissolution rate is measured to acid gastric buffer (pH 1.2, XII italian FU) in non-sink condition at a temperature of 37°C and while being agitated (agitation 60 rotation/minute).
# Solution 1is prepared by dissolving 258.3 mg of AlCl3 * 6H2O and 508.3 mg of MgCl2 * 6H2O in 18 mL of deionized water. […] A hydro-alcoholic solution is obtained by mixing the first and second solution and keeping it in a dark environment, agitated and in nitrogen flow. To this solution, under nitrogen flow, it has to be added 10 ml of NaOH solution 1 M up to a pH between 10-11. […]
# [3] = cited from earlier work
# [4] = cited from earlier work; remark: listed apart in the source
# [5] = compared to resveratrol; cited from earlier work
compound,measurement,setting,value
"Oc1ccc(/C=C/c2cc(O)cc(O)c2)cc1 [resveratrol, trans-resveratrol]",solubility,[1],44 µg/mL
same,photostability,"[2]; aqueous solution, 30 minute irradiation at 340 nm",photo-instability
same,photostability,"[2]; solid, 60 minute irradiation at 340 nm",photo-degraded
same,solubility in water,[3],about 30 mg/l
same,pKa,[4],~10
resveratrol-L-arginine salt,maximum plasma peak,[5],increased
